Where “and” joins values, the source holds several entries; their conditions need not be identical. Identical values can stand only once. ± gives the expanded uncertainty stated by the source.
Assay: mn = molality of the nth substance listed, in mol/kg
Settings: 101 kPa, Liquid; for viscosity: Capillary tube (Ostwald / Ubbelohde) method; for mass density: Vibrating tube method

Question: Which results are given for Cc1ncc(CO)c(CO)c1O.Cl [5-hydroxy-6-methyl-3,4-pyridinedimethanol hydrochloride] + O?
Answer: viscosity (293.15 K, m1 = 0.0999): 1.044 ± 0.022 mPa·s; viscosity (293.15 K, m1 = 0.1): 1.044 ± 0.022 mPa·s; viscosity (293.15 K, m1 = 0.1008): 1.044 ± 0.022 mPa·s; viscosity (293.15 K, m1 = 0.1992): 1.084 ± 0.023 mPa·s; viscosity (293.15 K, m1 = 0.2016): 1.085 ± 0.023 mPa·s; viscosity (293.15 K, m1 = 0.2025): 1.085 ± 0.023 mPa·s; viscosity (293.15 K, m1 = 0.3): 1.127 ± 0.024 mPa·s; viscosity (293.15 K, m1 = 0.3014): 1.127 ± 0.024 mPa·s; viscosity (293.15 K, m1 = 0.3999): 1.169 ± 0.025 mPa·s; viscosity (293.15 K, m1 = 0.4001): 1.172 ± 0.025 mPa·s; mass density (293.15 K, m1 = 0.0999): 1004.23 ± 1 kg/m3; mass density (293.15 K, m1 = 0.1): 1004.23 ± 1 kg/m3; mass density (293.15 K, m1 = 0.1008): 1004.28 ± 1 kg/m3; mass density (293.15 K, m1 = 0.1992): 1010 ± 1 kg/m3; mass density (293.15 K, m1 = 0.2016): 1010.1 ± 1 kg/m3 and 1010.09 ± 1 kg/m3; mass density (293.15 K, m1 = 0.2025): 1010.19 ± 1 kg/m3; mass density (293.15 K, m1 = 0.3): 1015.66 ± 1 kg/m3 and 1015.67 ± 1 kg/m3; mass density (293.15 K, m1 = 0.3014): 1015.74 ± 1 kg/m3; mass density (293.15 K, m1 = 0.3999): 1021.12 ± 1 kg/m3 and 1021.11 ± 1 kg/m3; mass density (293.15 K, m1 = 0.4001): 1021.16 ± 1 kg/m3; viscosity (303.15 K, m1 = 0.0999): 0.829 ± 0.018 mPa·s; viscosity (303.15 K, m1 = 0.1): 0.83 ± 0.017 mPa·s; viscosity (303.15 K, m1 = 0.1008): 0.83 ± 0.018 mPa·s; viscosity (303.15 K, m1 = 0.1992): 0.861 ± 0.018 mPa·s; viscosity (303.15 K, m1 = 0.2016): 0.861 ± 0.018 mPa·s; viscosity (303.15 K, m1 = 0.2025): 0.862 ± 0.018 mPa·s; viscosity (303.15 K, m1 = 0.3): 0.894 ± 0.019 mPa·s and 0.893 ± 0.019 mPa·s; viscosity (303.15 K, m1 = 0.3014): 0.894 ± 0.019 mPa·s; viscosity (303.15 K, m1 = 0.3999): 0.926 ± 0.019 mPa·s; viscosity (303.15 K, m1 = 0.4001): 0.926 ± 0.02 mPa·s; mass density (303.15 K, m1 = 0.0999): 1001.56 ± 1 kg/m3; mass density (303.15 K, m1 = 0.1): 1001.57 ± 1 kg/m3; mass density (303.15 K, m1 = 0.1008): 1001.61 ± 1 kg/m3; mass density (303.15 K, m1 = 0.1992): 1007.23 ± 1 kg/m3; mass density (303.15 K, m1 = 0.2016): 1007.34 ± 1 kg/m3; mass density (303.15 K, m1 = 0.2025): 1007.42 ± 1 kg/m3; mass density (303.15 K, m1 = 0.3): 1012.81 ± 1 kg/m3; mass density (303.15 K, m1 = 0.3014): 1012.88 ± 1 kg/m3; mass density (303.15 K, m1 = 0.3999): 1018.15 ± 1 kg/m3; mass density (303.15 K, m1 = 0.4001): 1018.19 ± 1 kg/m3; viscosity (313.15 K, m1 = 0.0999): 0.678 ± 0.014 mPa·s; viscosity (313.15 K, m1 = 0.1): 0.679 ± 0.014 mPa·s; viscosity (313.15 K, m1 = 0.1008): 0.679 ± 0.014 mPa·s; viscosity (313.15 K, m1 = 0.1992): 0.703 ± 0.015 mPa·s; viscosity (313.15 K, m1 = 0.2016): 0.704 ± 0.015 mPa·s and 0.703 ± 0.015 mPa·s; viscosity (313.15 K, m1 = 0.2025): 0.704 ± 0.015 mPa·s; viscosity (313.15 K, m1 = 0.3): 0.729 ± 0.015 mPa·s; viscosity (313.15 K, m1 = 0.3014): 0.729 ± 0.015 mPa·s; viscosity (313.15 K, m1 = 0.3999): 0.755 ± 0.016 mPa·s; viscosity (313.15 K, m1 = 0.4001): 0.755 ± 0.016 mPa·s; mass density (313.15 K, m1 = 0.0999): 998.03 ± 1 kg/m3; mass density (313.15 K, m1 = 0.1): 998.04 ± 1 kg/m3; mass density (313.15 K, m1 = 0.1008): 998.1 ± 1 kg/m3; mass density (313.15 K, m1 = 0.1992): 1003.65 ± 1 kg/m3; mass density (313.15 K, m1 = 0.2016): 1003.75 ± 1 kg/m3 and 1003.74 ± 1 kg/m3; mass density (313.15 K, m1 = 0.2025): 1003.85 ± 1 kg/m3; mass density (313.15 K, m1 = 0.3): 1009.15 ± 1 kg/m3; mass density (313.15 K, m1 = 0.3014): 1009.21 ± 1 kg/m3; mass density (313.15 K, m1 = 0.3999): 1014.45 ± 1 kg/m3; mass density (313.15 K, m1 = 0.4001): 1014.46 ± 1 kg/m3; viscosity (323.15 K, m1 = 0.0999): 0.568 ± 0.012 mPa·s; viscosity (323.15 K, m1 = 0.1): 0.568 ± 0.012 mPa·s; viscosity (323.15 K, m1 = 0.1008): 0.568 ± 0.012 mPa·s; viscosity (323.15 K, m1 = 0.1992): 0.587 ± 0.012 mPa·s; viscosity (323.15 K, m1 = 0.2016): 0.587 ± 0.012 mPa·s; viscosity (323.15 K, m1 = 0.2025): 0.589 ± 0.013 mPa·s; viscosity (323.15 K, m1 = 0.3): 0.608 ± 0.013 mPa·s; viscosity (323.15 K, m1 = 0.3014): 0.609 ± 0.013 mPa·s; viscosity (323.15 K, m1 = 0.3999): 0.629 ± 0.013 mPa·s; viscosity (323.15 K, m1 = 0.4001): 0.629 ± 0.013 mPa·s; mass density (323.15 K, m1 = 0.0999): 993.8 ± 1 kg/m3; mass density (323.15 K, m1 = 0.1): 993.81 ± 1 kg/m3; mass density (323.15 K, m1 = 0.1008): 993.86 ± 1 kg/m3; mass density (323.15 K, m1 = 0.1992): 999.27 ± 1 kg/m3; mass density (323.15 K, m1 = 0.2016): 999.43 ± 1 kg/m3; mass density (323.15 K, m1 = 0.2025): 999.49 ± 1 kg/m3; mass density (323.15 K, m1 = 0.3): 1004.74 ± 1 kg/m3; mass density (323.15 K, m1 = 0.3014): 1004.83 ± 1 kg/m3; mass density (323.15 K, m1 = 0.3999): 1010.01 ± 1 kg/m3; mass density (323.15 K, m1 = 0.4001): 1010.02 ± 1 kg/m3

From the NIST ThermoML archive (doi:10.1021/acs.jced.5b00114)
